Columns and labels:
[1] = target: T1, HaPOR3 (Helianthus annuus, UniProt A0A251UT40); assay: biochemical; conditions: 400 uM OPT lipids, 5 uM Pchlide, 15 uM LPOR
T1 construct: gene POR; transit peptide removed; pET15b
T1 sequence (A0A251UT40 51-384): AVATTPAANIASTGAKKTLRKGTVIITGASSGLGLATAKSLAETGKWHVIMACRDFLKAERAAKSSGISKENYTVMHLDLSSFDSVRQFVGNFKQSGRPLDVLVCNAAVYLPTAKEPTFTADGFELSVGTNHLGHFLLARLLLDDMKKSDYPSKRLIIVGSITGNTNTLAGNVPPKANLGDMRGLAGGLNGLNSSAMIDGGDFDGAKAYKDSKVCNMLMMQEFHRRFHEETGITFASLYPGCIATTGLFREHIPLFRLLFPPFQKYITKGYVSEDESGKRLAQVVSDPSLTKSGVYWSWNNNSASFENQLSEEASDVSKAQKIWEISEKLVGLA
Experimental: (§1) (Figs. 3A, S2). […] The resulting plots resembled saturation curves, to which a hyperbolic function similar to the Michaelis–Menten equation could be fitted (Figs. 3B, S3, Materials and Methods). […] However, KM^L values were consistently lower than KM^D values. […] The addition of 400 μM OPT lipids lowered the KM^D constant for all isoforms, except for SlPOR1, SlPOR3, HaPOR1, HaPOR2, and PeaPOR, where the constant remained unchanged within error estimates. […] Shaded areas represent the SD between replicates. […] A fit of a modified Michaelis–Menten equation is shown, along with the graphical representation of KM^D (B) or KM^L (C). Spectra corresponding to the given F648/F635 values (B) or F Chlide/F Pchlide values (C) are shown on the right side of the plot. D, relationship between KM^D and KM^L for investigated isoforms. The overall distribution of data points is shown in gray. Error bars represent the uncertainty associated with the fitted constant KM^x. Closed symbols represent constants determined for samples not supplemented with lipids, while open symbols these determined in the presence of 400 μM OPT lipids. LPOR, light-dependent protochlorophyllide oxidoreductase; Pchlide, protochlorophyllide; Chlide, chlorophyllide.

[2] = target: T2, TaPOR1 (Triticum aestivum, UniProt Q41578); assay: biochemical; conditions: 5 uM Pchlide, 15 uM LPOR
T2 construct: gene PORA
T2 sequence (Q41578 75-388): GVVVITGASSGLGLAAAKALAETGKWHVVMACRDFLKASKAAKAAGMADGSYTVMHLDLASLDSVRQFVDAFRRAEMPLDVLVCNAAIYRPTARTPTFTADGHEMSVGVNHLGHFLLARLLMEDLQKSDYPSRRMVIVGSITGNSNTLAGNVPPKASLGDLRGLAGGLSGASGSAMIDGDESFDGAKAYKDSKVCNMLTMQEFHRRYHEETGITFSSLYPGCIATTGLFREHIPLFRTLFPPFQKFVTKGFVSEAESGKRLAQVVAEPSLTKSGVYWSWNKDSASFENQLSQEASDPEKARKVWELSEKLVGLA
Experimental: as §1

[3] = target: T3, PinPOR (Pinus mugo, UniProt Q41202); assay: biochemical; conditions: 5 uM Pchlide, 15 uM LPOR
T3 construct: transit peptide removed; pET15b
T3 sequence (Q41202 67-400): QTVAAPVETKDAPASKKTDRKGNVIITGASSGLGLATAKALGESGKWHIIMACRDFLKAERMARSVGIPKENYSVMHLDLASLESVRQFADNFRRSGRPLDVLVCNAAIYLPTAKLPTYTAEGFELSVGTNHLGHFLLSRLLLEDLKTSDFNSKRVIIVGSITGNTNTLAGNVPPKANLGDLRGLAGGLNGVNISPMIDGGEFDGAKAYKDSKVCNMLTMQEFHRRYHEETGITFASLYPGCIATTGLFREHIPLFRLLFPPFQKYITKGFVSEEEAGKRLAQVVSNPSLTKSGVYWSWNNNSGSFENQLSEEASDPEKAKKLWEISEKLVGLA
Experimental: as §1

[4] = target: T4, HaPOR1 (Helianthus annuus, UniProt A0A251T841); assay: biochemical; conditions: 400 uM OPT lipids, 5 uM Pchlide, 15 uM LPOR
T4 construct: gene PORA; transit peptide removed; pET15b
T4 sequence (A0A251T841 64-398): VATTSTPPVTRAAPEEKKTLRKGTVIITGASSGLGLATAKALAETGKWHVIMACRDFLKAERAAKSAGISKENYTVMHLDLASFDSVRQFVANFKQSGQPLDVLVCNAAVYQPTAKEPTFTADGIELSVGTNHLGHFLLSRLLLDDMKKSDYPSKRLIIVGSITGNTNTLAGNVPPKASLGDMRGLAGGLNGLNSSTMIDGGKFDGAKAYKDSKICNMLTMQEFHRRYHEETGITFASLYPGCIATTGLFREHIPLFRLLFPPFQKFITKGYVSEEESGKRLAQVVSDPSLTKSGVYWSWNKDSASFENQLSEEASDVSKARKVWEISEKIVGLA
Experimental: as §1

[5] = target: T5, PeaPOR (Lathyrus oleraceus, UniProt Q01289); assay: biochemical; conditions: 5 uM Pchlide, 15 uM LPOR
T5 construct: gene 3PCR; transit peptide removed; pET15b
T5 sequence (Q01289 65-399): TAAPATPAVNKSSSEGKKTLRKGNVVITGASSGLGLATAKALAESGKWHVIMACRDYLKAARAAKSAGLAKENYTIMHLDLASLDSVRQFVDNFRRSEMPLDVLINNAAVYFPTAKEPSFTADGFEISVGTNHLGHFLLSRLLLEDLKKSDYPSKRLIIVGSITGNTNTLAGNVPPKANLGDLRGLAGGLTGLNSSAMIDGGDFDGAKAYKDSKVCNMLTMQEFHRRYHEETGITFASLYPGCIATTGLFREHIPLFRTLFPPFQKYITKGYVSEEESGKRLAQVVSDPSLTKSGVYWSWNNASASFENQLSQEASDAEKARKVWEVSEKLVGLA
Experimental: as §1

[6] = target: T6, SlPOR2 (Solanum lycopersicum, UniProt A0A3Q7IBI0); assay: […] K Pchlide fluorescence in darkness, F648/F635 ratio vs NADPH, hyperbolic fit; assay type: binding; conditions: lipid-free; 5 μM Pchlide, 15 μM LPOR, pH 7.1, room-temperature dark incubation; apparent parameter, exact value in supplement; read-out: KM^D
T6 construct: gene POR; transit peptide removed; pET15b
T6 sequence (A0A3Q7IBI0 62-395): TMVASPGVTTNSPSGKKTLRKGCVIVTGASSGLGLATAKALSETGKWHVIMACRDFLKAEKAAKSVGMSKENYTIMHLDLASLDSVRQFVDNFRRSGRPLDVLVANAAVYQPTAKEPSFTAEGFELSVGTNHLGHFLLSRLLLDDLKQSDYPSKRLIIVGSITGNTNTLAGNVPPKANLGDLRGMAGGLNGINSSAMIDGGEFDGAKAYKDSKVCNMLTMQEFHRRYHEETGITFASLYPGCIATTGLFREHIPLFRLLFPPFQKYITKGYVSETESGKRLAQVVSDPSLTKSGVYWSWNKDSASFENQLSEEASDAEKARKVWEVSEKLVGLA

## NC(=O)C1=CN([C@@H]2O[C@H](COP(=O)(O)OP(=O)(O)OC[C@H]3O[C@@H](n4cnc5c(N)ncnc54)[C@H](OP(=O)(O)O)[C@@H]3O)[C@@H](O)[C@H]2O)C=CC1 [NADPH]
[1]
  apparent Michaelis constant in dark (KM^D): 3.9 µM
[2]; 400 uM OPT lipids
  Km (apparent, dark, KM^D): 45.8 µM
[2]; no lipids, dark
  apparent Michaelis constant (KM^D): 394 µM
[3]; 400 uM OPT lipids
  Michaelis constant, dark (KM^D): 1.3 µM
[3]; no lipids
  apparent Michaelis constant in dark (KM^D): 4.3 µM
[4]
  apparent Michaelis constant KM^D (dark): 16.9 µM
[5]; 400 uM OPT lipids
  apparent Michaelis constant in the dark (KM^D): 4.7 µM
[5]; no lipids
  Michaelis constant in the dark (KM^D): 10.8 µM
[6]
  Kd: < 10 µM
